Data published in article PMC10187093, “Synthesis, in silico modelling, and in vitro biological evaluation of substituted pyrazole derivatives as potential anti-skin cancer, anti-tyrosinase, and antioxidant agents” (Journal of Enzyme Inhibition and Medicinal Chemistry, 2023).

Biological target: T1, mushroom tyrosinase (Agaricus bisporus, UniProt C7FF04)
T1 construct: purchased Sigma-Aldrich Chemical Company (St. Louis, MO) and MP Biomedicals (Irvine, CA)
Assay: In vitro mushroom tyrosinase inhibition assay
Format: biochemical
Details: 500 µM, single-concentration screen; read-out: % Inhibition of tyrosinase
Description: The anti-tyrosinase potential of all the synthesised derivatives was determined by an enzymatic tyrosinase inhibition assay based on their ability to inhibit the substrate, L-tyrosine, from binding to the tyrosinase enzyme. […] Test samples were dissolved in DMSO at a concentration of 10 mM and then diluted to different concentrations with phosphate buffer (0.1 M, pH 6.8). Each well contained 40 µL of the sample with 80 µL of phosphate buffer solution (0.1 M, pH 6.8), 40 µL of tyrosinase enzyme (100 units/mL), and 40 µL L-tyrosine (2.5 mM). The mixture was incubated for 30 min at room temperature, and absorbance was measured at 490 nm. Each sample was accompanied by a sample blank containing all components except tyrosinase. […] The percentage of tyrosinase inhibition was calculated as follows: ((ΔAcontrol – ΔAsample)/ΔAcontrol) × 100. IC50 values denoted the sample concentration required to inhibit 50% tyrosinase activity (Table S1).

T1 sequence (C7FF04 1-392 limits assumed): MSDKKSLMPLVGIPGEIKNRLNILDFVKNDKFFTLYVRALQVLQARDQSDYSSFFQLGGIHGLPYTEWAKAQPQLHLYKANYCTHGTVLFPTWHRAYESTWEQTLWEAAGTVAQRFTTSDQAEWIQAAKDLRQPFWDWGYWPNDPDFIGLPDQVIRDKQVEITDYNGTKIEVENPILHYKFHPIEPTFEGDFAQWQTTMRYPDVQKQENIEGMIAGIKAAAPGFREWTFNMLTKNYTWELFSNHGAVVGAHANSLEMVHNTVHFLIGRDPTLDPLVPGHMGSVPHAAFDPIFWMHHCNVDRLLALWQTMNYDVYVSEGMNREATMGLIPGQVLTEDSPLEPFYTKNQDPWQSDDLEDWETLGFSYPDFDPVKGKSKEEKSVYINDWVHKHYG

SMILES	inhibition at 500 µM [%]
CCc1c(C)nn(-c2ccccc2)c1C [P7, 4-Ethyl-3,5-dimethyl-1-phenyl-1H-pyrazole]	55.5
FC(F)(F)c1cc(-c2ccccc2)n(-c2ccccc2)n1 [P15, 1,5-Diphenyl-3-(trifluoromethyl)-1H-pyrazole]	32.2
Cc1[nH]nc2c1ccc1ccccc12 [P6, 3-Methyl-2H-benzo[g]indazole]	81.7 ± 0.7
Cc1cc(-c2ccccc2)n(-c2ccc(Br)cc2)n1 [P16, 1-(4-Bromophenyl)-3-methyl-5-phenyl-1H-pyrazole]	17.3

Same assay, conditions: > 500 = not biologically relevant; read-out: IC50 Value, mushroom tyrosinase inhibition (Table S1)

SMILES	IC50 [µM]
CCc1c(C)nn(-c2ccccc2)c1C [P7, 4-Ethyl-3,5-dimethyl-1-phenyl-1H-pyrazole]	> 500
FC(F)(F)c1cc(-c2ccccc2)n(-c2ccccc2)n1 [P15, 1,5-Diphenyl-3-(trifluoromethyl)-1H-pyrazole]	> 500
Cc1[nH]nc2c1ccc1ccccc12 [P6, 3-Methyl-2H-benzo[g]indazole]	> 500
Cc1cc(-c2ccccc2)n(-c2ccc(Br)cc2)n1 [P16, 1-(4-Bromophenyl)-3-methyl-5-phenyl-1H-pyrazole]	> 500

Tested on: not listed separately
Assay: DPPH free radical scavenging assay
Details: 1 mM
Description: An initial screen was done of all 25 derivatives at a concentration of 1 mM. […] Methanol was used as the diluent, and 100 µL of DPPH (200 µM; Sigma-Aldrich, St. Louis, MO) was added to each well. […] The scavenging capacity (SC) was calculated as SC% = ((ΔAcontrol – ΔAsample)/ΔAcontrol) × 100%, where ΔAcontrol was the absorbance of the reagent blank, and ΔAsample was the absorbance of the test samples. The control contained all reagents except the compounds, and all tests were performed in triplicate. Quercetin served as a positive control. The DPPH methanolic solution (1 mL) mixed with DMSO (5 µL) served as a negative control.

SMILES	Percent Scavenging (DPPH) [%]
CCc1c(C)nn(-c2ccccc2)c1C [P7, 4-Ethyl-3,5-dimethyl-1-phenyl-1H-pyrazole]	15.47
FC(F)(F)c1cc(-c2ccccc2)n(-c2ccccc2)n1 [P15, 1,5-Diphenyl-3-(trifluoromethyl)-1H-pyrazole]	-23.36
Cc1[nH]nc2c1ccc1ccccc12 [P6, 3-Methyl-2H-benzo[g]indazole]	65.17
Cc1cc(-c2ccccc2)n(-c2ccc(Br)cc2)n1 [P16, 1-(4-Bromophenyl)-3-methyl-5-phenyl-1H-pyrazole]	-24.61

Same assay, conditions: N.A. = No Activity; > 1000 = not biologically relevant; read-out: IC50 Value, DPPH antioxidant activity (Table S4)

SMILES	IC50 [µM]
CCc1c(C)nn(-c2ccccc2)c1C [P7, 4-Ethyl-3,5-dimethyl-1-phenyl-1H-pyrazole]	> 1000
Cc1[nH]nc2c1ccc1ccccc12 [P6, 3-Methyl-2H-benzo[g]indazole]	30.6

Same assay, conditions: read-out: IC50 DPPH radical scavenging

SMILES	IC50 [µM]
Cc1[nH]nc2c1ccc1ccccc12 [P6, 3-Methyl-2H-benzo[g]indazole]	30.6 ± 2.1

Tested on: GFP-A431
Assay: MTT antiproliferative/cytotoxicity assay, A431
Format: cell-based, human
Details: Homo sapiens, A-431, 48 h, non-melanoma, MTT, 48 h; read-out: IC50 GFP-A431
Description: (§1) Human-derived GFP-expressing melanoma A375 and epidermoid carcinoma A431 cell lines were purchased from Angio-Proteomie (Boston, MA). Human melanoma carcinoma SK-MEL-28 and human immortalised keratinocytes (HaCaT) cell lines were acquired from American Type Culture Collection (ATCC; Manassas, VA). […] The growth media of incubated cells were changed every 2–3 days until they attained 70–80% confluence, after which they were sub-cultured for experiments and re-passaging. DMSO was used as the vehicle to prepare a 10 mM stock solution of the test compounds.
(§2) Stock solutions (10 mM) were prepared by dissolving each compound to be screened in DMSO.

SMILES	IC50 [µM]
CCc1c(C)nn(-c2ccccc2)c1C [P7, 4-Ethyl-3,5-dimethyl-1-phenyl-1H-pyrazole]	47.8 ± 2
FC(F)(F)c1cc(-c2ccccc2)n(-c2ccccc2)n1 [P15, 1,5-Diphenyl-3-(trifluoromethyl)-1H-pyrazole]	42.9 ± 1
Cc1[nH]nc2c1ccc1ccccc12 [P6, 3-Methyl-2H-benzo[g]indazole]	69.8 ± 7.5
Cc1cc(-c2ccccc2)n(-c2ccc(Br)cc2)n1 [P16, 1-(4-Bromophenyl)-3-methyl-5-phenyl-1H-pyrazole]	21 ± 1.3

Same assay, conditions: IC50 HaCaT divided by IC50 A431

SMILES	selectivity index (SI) A431
Cc1[nH]nc2c1ccc1ccccc12 [P6, 3-Methyl-2H-benzo[g]indazole]	2.1
Cc1cc(-c2ccccc2)n(-c2ccc(Br)cc2)n1 [P16, 1-(4-Bromophenyl)-3-methyl-5-phenyl-1H-pyrazole]	2.6

Tested on: A375
Assay: MTT antiproliferative/cytotoxicity assay, A375
Format: cell-based, human
Details: Homo sapiens, A-375, 48 h, melanoma, MTT, 48 h; read-out: IC50 A375
Description: (§3) Human-derived GFP-expressing melanoma A375 and epidermoid carcinoma A431 cell lines were purchased from Angio-Proteomie (Boston, MA). Human melanoma carcinoma SK-MEL-28 and human immortalised keratinocytes (HaCaT) cell lines were acquired from American Type Culture Collection (ATCC; Manassas, VA). Human cutaneous SCC cell line SCC-12[192] was generously provided by Dr. James G. Rheinwald to Dr. Tatiana Efimova. Except SK-MEL-28, which was cultured in an RPMI-1640 medium supplemented with 5% FBS, all other human immortalised cell lines were grown and maintained in DMEM containing varying percentages of FBS; 5% FBS for A431, SCC-12, and HaCaT lines, and 10% FBS for A375. All culture media were routinely supplemented with 1% PEST 100X (100 U/mL penicillin, 100 μg/mL streptomycin), and cells were cultured in incubators maintained at 37 °C under an atmosphere of 95% humidity, 20% O2, and 5% CO2. The growth media of incubated cells were changed every 2–3 days until they attained 70–80% confluence, after which they were sub-cultured for experiments and re-passaging. DMSO was used as the vehicle to prepare a 10 mM stock solution of the test compounds.
(§4) Stock solutions (10 mM) were prepared by dissolving each compound to be screened in DMSO. From these stock solutions, escalating concentrations were prepared using the corresponding cell growth media as a diluent, and the cells (65–75% confluent) were treated with (0–40 µM) or without the drug in sext- to octuplicate and incubated for 48 h. All treatment protocols and controls were prepared as previously described.
(§5) The potency and cytotoxicity of the test compounds against two cutaneous melanoma (A375 and SK-MEL-28) and two non-melanoma (A431 and SCC-12) SC cell lines in addition to a control immortalised normal human epidermal keratinocytes (HaCaT) cell line were assessed by MTT assay as previously described.

SMILES	IC50 [µM]
CCc1c(C)nn(-c2ccccc2)c1C [P7, 4-Ethyl-3,5-dimethyl-1-phenyl-1H-pyrazole]	53.3 ± 4.2
FC(F)(F)c1cc(-c2ccccc2)n(-c2ccccc2)n1 [P15, 1,5-Diphenyl-3-(trifluoromethyl)-1H-pyrazole]	58.5 ± 3.4
Cc1[nH]nc2c1ccc1ccccc12 [P6, 3-Methyl-2H-benzo[g]indazole]	114 ± 3.3
Cc1cc(-c2ccccc2)n(-c2ccc(Br)cc2)n1 [P16, 1-(4-Bromophenyl)-3-methyl-5-phenyl-1H-pyrazole]	46 ± 1

Tested on: HaCaT
Assay: MTT cytotoxicity assay, noncancerous HaCaT keratinocytes
Format: cell-based, human
Details: Homo sapiens, HaCaT; control noncancerous keratinocytes, MTT, 48 h; read-out: IC50 HaCaT
Description: as §3, §4, §5

SMILES	IC50 [µM]
CCc1c(C)nn(-c2ccccc2)c1C [P7, 4-Ethyl-3,5-dimethyl-1-phenyl-1H-pyrazole]	59.2 ± 3.5
FC(F)(F)c1cc(-c2ccccc2)n(-c2ccccc2)n1 [P15, 1,5-Diphenyl-3-(trifluoromethyl)-1H-pyrazole]	53.7 ± 3.1
Cc1[nH]nc2c1ccc1ccccc12 [P6, 3-Methyl-2H-benzo[g]indazole]	147.2 ± 0.8
Cc1cc(-c2ccccc2)n(-c2ccc(Br)cc2)n1 [P16, 1-(4-Bromophenyl)-3-methyl-5-phenyl-1H-pyrazole]	54.2 ± 3.6

Tested on: SCC-12
Assay: MTT antiproliferative/cytotoxicity assay, SCC-12
Format: cell-based, human
Details: Homo sapiens, SCC12, 48 h, non-melanoma, MTT, 48 h; read-out: IC50 SCC-12
Description: as §1, §2

SMILES	IC50 [µM]
CCc1c(C)nn(-c2ccccc2)c1C [P7, 4-Ethyl-3,5-dimethyl-1-phenyl-1H-pyrazole]	43 ± 2.1
FC(F)(F)c1cc(-c2ccccc2)n(-c2ccccc2)n1 [P15, 1,5-Diphenyl-3-(trifluoromethyl)-1H-pyrazole]	98 ± 5.5
Cc1[nH]nc2c1ccc1ccccc12 [P6, 3-Methyl-2H-benzo[g]indazole]	49.9 ± 3.4
Cc1cc(-c2ccccc2)n(-c2ccc(Br)cc2)n1 [P16, 1-(4-Bromophenyl)-3-methyl-5-phenyl-1H-pyrazole]	19.6 ± 2

Same assay, conditions: IC50 HaCaT divided by IC50 SCC-12

SMILES	selectivity index (SI) SCC-12
Cc1[nH]nc2c1ccc1ccccc12 [P6, 3-Methyl-2H-benzo[g]indazole]	3.0
Cc1cc(-c2ccccc2)n(-c2ccc(Br)cc2)n1 [P16, 1-(4-Bromophenyl)-3-methyl-5-phenyl-1H-pyrazole]	2.8

Tested on: SK-MEL-28
Assay: MTT antiproliferative/cytotoxicity assay, SK-MEL-28
Format: cell-based, human
Details: Homo sapiens, SK-MEL-28, 48 h, melanoma, MTT, 48 h; read-out: IC50 SKMEL-28
Description: as §3, §4, §5

SMILES	IC50 [µM]
CCc1c(C)nn(-c2ccccc2)c1C [P7, 4-Ethyl-3,5-dimethyl-1-phenyl-1H-pyrazole]	46 ± 1
FC(F)(F)c1cc(-c2ccccc2)n(-c2ccccc2)n1 [P15, 1,5-Diphenyl-3-(trifluoromethyl)-1H-pyrazole]	36 ± 3.9
Cc1[nH]nc2c1ccc1ccccc12 [P6, 3-Methyl-2H-benzo[g]indazole]	47.4 ± 1.2
Cc1cc(-c2ccccc2)n(-c2ccc(Br)cc2)n1 [P16, 1-(4-Bromophenyl)-3-methyl-5-phenyl-1H-pyrazole]	39.1 ± 2.3
